Measurements as given in ChEMBL document CHEMBL5696442, “Discovery of type II inhibitors of TGFβ-activated kinase 1 (TAK1) and mitogen-activated protein kinase kinase kinase kinase 2 (MAP4K2)” (J Med Chem, 2015).

What was measured:
[1] = molecular target: Phosphatidylinositol 4-phosphate 3-kinase C2 domain-containing subunit beta (Homo sapiens) (UniProt O00750); assay: Inhibition of PIK3C2B ATP labeling site in human Huh-7 cell lysate at 1 uM by KiNativ Profiling analysis relative to control; type: subcellular
[2] = molecular target: T1, Interleukin-1 receptor-associated kinase 4 (Homo sapiens) (UniProt Q9NWZ3); assay: Inhibition of IRAK4 Lys2 labeling site in human Huh-7 cells at 1 uM by KiNativ Profiling analysis relative to control; type: cell-based
T1 sequence (whole entry): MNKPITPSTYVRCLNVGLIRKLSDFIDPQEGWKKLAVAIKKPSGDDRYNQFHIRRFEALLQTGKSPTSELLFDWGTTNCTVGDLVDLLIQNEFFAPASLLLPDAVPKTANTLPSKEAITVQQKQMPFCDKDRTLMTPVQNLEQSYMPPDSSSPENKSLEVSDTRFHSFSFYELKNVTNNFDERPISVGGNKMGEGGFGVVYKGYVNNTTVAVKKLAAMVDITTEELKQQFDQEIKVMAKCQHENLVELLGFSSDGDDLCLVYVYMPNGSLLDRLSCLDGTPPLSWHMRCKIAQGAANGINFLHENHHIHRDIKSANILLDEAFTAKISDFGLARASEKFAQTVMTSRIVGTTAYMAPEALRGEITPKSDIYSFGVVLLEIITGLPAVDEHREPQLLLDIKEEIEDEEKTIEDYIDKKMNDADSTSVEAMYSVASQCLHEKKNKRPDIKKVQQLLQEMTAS

[3] = molecular target: Serine/threonine-protein kinase Nek6 (Homo sapiens) (UniProt Q9HC98); assay: Inhibition of NEK6 Lys2 labeling site harbouring DIKPANVFITATGVVK in human Huh-7 cells at 1 uM by KiNativ Profiling analysis relative to control; type: cell-based
Sequence of Serine/threonine-protein kinase Nek6 (Homo sapiens) (Q9HC98 whole entry): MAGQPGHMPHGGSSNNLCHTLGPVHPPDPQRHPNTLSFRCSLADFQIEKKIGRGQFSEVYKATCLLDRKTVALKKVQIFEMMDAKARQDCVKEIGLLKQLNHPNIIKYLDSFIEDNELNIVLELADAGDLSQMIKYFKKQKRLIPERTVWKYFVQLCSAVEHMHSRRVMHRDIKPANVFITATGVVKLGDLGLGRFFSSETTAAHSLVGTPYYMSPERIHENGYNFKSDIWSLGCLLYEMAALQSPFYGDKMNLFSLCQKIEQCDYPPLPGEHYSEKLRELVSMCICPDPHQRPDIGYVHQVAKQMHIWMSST

[4] = molecular target: Hepatocyte growth factor receptor (Homo sapiens) (UniProt P08581); assay: Inhibition of MET ACT labeling site in human A-375 cells at 0.5 uM by KiNativ Profiling analysis relative to control; type: cell-based
[5] = molecular target: T2, Mitogen-activated protein kinase kinase kinase kinase 2 (Homo sapiens) (UniProt Q12851); assay: Inhibition of MAP4K2 (GCK) Lys1 labeling site in human A-375 cells at 0.05 uM by KiNativ Profiling analysis relative to control; type: cell-based
T2 sequence (whole entry): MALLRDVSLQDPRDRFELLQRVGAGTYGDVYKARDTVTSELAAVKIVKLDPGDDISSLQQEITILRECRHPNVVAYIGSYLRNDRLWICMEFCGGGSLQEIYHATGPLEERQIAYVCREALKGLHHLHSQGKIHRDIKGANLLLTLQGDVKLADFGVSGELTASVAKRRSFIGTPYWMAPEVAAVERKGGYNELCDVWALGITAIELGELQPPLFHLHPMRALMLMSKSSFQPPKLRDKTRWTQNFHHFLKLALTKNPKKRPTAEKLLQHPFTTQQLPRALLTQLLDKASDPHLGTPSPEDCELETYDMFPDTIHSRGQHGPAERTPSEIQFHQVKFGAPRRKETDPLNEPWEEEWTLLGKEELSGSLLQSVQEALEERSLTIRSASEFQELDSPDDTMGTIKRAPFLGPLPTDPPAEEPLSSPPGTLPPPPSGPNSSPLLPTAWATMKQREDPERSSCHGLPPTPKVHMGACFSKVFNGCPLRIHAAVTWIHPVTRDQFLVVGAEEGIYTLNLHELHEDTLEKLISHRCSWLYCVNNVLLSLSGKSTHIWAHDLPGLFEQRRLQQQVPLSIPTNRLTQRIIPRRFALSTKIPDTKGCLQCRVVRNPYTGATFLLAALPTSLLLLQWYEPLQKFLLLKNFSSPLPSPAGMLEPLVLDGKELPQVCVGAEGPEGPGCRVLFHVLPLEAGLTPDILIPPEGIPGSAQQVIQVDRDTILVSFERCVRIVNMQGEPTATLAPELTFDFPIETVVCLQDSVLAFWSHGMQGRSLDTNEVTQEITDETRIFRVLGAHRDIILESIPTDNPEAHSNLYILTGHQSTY

[6] = molecular target: Serine/threonine-protein kinase 24 (Homo sapiens) (UniProt Q9Y6E0); assay: Inhibition of MST3 K2 labeling site harbouring DIKAANVLLSEHGEVK in human Huh-7 cells at 1 uM by KiNativ Profiling analysis relative to control; type: cell-based
Sequence of Serine/threonine-protein kinase 24 (Homo sapiens) (Q9Y6E0 whole entry, looked up): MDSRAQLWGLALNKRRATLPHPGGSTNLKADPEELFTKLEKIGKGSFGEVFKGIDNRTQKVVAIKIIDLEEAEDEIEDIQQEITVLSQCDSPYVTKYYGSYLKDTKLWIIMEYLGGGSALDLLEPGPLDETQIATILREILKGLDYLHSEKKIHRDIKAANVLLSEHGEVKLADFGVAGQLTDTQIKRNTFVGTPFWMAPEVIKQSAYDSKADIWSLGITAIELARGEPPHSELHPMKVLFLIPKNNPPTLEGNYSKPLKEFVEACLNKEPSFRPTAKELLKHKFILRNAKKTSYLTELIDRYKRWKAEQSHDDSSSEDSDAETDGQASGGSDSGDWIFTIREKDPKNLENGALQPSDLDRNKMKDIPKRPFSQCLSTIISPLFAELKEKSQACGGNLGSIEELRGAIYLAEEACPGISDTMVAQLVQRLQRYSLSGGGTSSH

[7] = molecular target: Serine/threonine-protein kinase SMG1 (Homo sapiens) (UniProt Q96Q15); assay: Inhibition of SMG1 ATP labeling site in human Huh-7 cells at 1 uM by KiNativ Profiling analysis relative to control; type: cell-based
Sequence of Serine/threonine-protein kinase SMG1 (Homo sapiens) (Q96Q15 whole entry): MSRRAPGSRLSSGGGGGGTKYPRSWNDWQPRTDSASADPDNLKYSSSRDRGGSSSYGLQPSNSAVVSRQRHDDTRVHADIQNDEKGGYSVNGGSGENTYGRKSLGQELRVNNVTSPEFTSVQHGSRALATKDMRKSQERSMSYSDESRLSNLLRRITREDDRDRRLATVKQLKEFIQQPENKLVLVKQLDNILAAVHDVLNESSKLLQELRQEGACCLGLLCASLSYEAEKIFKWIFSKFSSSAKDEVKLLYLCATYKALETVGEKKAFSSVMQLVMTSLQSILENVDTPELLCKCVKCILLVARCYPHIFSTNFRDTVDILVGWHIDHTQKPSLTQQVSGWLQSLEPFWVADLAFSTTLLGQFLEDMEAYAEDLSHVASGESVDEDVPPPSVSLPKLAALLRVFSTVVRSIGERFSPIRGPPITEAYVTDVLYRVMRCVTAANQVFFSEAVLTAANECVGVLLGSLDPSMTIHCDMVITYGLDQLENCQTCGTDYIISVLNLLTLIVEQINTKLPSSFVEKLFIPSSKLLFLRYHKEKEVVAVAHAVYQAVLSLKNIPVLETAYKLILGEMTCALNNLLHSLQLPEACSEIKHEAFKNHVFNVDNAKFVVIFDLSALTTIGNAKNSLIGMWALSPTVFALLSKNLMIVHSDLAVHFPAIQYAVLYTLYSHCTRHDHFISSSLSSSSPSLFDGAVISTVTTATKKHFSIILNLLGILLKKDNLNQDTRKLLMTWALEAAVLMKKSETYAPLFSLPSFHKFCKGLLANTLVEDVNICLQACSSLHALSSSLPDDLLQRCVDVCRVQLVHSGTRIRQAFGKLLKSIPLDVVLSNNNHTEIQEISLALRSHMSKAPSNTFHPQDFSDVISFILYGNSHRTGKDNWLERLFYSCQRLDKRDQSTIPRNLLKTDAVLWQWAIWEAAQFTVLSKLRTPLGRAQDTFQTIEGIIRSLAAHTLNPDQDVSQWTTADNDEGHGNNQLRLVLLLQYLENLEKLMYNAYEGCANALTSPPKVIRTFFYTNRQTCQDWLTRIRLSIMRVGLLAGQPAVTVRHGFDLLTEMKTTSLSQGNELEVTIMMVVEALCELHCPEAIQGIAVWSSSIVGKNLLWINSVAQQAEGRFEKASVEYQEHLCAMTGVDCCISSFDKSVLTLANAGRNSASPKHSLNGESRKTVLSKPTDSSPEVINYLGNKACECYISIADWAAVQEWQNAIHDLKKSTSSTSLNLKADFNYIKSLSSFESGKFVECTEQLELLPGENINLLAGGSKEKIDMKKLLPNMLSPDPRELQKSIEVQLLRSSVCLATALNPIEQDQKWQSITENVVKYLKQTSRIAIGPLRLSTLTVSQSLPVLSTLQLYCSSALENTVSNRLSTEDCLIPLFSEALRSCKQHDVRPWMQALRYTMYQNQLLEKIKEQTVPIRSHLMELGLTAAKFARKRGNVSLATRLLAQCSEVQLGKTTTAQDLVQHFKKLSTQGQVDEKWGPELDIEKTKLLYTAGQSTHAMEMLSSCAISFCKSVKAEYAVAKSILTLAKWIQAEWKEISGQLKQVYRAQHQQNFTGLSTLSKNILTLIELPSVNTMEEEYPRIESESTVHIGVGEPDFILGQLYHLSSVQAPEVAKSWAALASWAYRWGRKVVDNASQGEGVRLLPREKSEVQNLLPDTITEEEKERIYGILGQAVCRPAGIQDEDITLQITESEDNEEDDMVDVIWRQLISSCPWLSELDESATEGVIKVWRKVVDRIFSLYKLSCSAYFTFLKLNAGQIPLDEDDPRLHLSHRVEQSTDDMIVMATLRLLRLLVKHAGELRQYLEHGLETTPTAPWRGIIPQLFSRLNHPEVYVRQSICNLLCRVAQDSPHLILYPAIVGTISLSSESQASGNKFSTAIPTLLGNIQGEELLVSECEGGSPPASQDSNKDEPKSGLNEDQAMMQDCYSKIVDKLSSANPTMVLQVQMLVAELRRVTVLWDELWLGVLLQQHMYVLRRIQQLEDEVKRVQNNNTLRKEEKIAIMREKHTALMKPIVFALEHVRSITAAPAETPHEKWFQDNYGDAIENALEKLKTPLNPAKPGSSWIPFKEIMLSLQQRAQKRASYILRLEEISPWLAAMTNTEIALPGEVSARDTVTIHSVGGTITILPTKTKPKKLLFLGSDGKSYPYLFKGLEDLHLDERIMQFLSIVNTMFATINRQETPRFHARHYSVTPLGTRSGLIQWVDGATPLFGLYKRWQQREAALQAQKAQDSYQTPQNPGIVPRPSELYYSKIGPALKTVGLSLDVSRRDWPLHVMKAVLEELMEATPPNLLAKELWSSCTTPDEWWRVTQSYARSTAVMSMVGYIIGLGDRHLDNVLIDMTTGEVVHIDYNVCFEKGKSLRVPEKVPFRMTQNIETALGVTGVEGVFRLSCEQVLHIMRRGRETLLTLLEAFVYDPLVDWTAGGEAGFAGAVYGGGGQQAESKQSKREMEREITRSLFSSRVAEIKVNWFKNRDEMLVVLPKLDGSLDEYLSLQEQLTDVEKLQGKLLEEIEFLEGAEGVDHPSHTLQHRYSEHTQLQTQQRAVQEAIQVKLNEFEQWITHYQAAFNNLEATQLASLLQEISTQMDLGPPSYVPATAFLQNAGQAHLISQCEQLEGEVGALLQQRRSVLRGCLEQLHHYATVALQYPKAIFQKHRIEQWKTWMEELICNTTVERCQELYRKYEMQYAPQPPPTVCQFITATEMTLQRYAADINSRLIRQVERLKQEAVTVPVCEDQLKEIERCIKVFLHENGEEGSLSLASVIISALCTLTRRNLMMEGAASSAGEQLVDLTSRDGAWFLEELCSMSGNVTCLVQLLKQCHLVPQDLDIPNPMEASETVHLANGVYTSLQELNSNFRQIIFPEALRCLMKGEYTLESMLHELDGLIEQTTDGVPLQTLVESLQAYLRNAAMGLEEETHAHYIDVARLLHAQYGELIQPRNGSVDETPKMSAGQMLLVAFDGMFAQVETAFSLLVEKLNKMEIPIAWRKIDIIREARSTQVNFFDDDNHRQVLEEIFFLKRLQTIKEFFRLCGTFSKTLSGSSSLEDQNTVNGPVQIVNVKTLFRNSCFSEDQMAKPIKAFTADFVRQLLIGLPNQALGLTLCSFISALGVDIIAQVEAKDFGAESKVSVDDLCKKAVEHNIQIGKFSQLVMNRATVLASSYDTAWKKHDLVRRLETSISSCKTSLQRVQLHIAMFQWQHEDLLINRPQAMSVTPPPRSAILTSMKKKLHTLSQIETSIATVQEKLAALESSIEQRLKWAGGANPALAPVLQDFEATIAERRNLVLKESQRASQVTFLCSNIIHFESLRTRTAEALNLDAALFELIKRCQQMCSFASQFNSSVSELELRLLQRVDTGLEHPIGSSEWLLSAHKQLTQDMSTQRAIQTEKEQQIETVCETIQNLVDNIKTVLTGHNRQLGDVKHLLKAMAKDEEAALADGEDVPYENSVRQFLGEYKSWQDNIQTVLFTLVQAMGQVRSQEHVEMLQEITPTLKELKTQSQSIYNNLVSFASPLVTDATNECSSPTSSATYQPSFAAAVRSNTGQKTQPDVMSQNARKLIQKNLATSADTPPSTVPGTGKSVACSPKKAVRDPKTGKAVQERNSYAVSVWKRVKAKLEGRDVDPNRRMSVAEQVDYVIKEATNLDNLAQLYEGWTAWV

| Structure (SMILES) | inhibition [1] [%] | inhibition [2] [%] | inhibition [3] [%] | inhibition [4] [%] | inhibition [5] [%] | inhibition [6] [%] | inhibition [7] [%] |
| --- | --- | --- | --- | --- | --- | --- | --- |
| CNc1cc(Oc2cc(C(=O)Nc3cc(N4CCN(C)CC4)cc(C(F)(F)F)c3)ccc2C)ncn1 | 9 | 0.4 | -2.7 | – | – | – | – |
| CCN1CCN(Cc2ccc(NC(=O)c3ccc(C)c(Oc4ccnc5[nH]ccc45)c3)cc2C(F)(F)F)CC1 | – | – | – | 14.4 | 98.2 | -7.8 | 13 |
